Data set [1] concerns the target T1, human D2L receptors (Homo sapiens, UniProt P14416). In words: Competition kinetic binding with PPHT-red tracer (TR-FRET, Motulsky-Mahan). To be noted: for t 1/2: dissociation half-life from k off.
Data set [2] addresses T1, human D2L receptors. The data set is described as follows: Equilibrium competition binding with PPHT-red (TR-FRET). For orientation: In TR-FRET formats the signal depends on donor and acceptor labels being close together.
Data set [3] deals with T1, human D2L receptors. In words: biochemical.
Data set [4] addresses T1, human D2L receptors.
The next data set has as its target D2R (Homo sapiens, UniProt P14416). In words: biochemical.
The conditions of data set [5]: cited from earlier work.
The conditions of data set [6]: clinical; cited from earlier work.
Setting [7] is: 37 °C, 100 μM GppNHp, 12.5 nM PPHT-red tracer, CHO-D2L membranes, mean ± s.e.m., four experiments.

Structures can show the parent of a compound that is named as a salt. Where two headings read alike, the source gives them in different places.

T1 sequence (P14416 whole entry): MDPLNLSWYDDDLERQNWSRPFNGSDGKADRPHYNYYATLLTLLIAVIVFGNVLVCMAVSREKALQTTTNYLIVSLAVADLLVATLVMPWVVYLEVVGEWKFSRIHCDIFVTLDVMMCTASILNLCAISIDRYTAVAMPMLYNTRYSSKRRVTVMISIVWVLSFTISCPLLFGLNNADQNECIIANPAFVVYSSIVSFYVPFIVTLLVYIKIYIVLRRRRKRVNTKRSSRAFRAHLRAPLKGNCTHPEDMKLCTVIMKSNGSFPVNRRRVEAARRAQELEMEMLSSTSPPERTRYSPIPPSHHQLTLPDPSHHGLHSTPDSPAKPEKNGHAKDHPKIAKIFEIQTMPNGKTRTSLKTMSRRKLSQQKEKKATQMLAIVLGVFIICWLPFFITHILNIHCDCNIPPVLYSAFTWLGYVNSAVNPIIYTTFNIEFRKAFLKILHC
D2R, sequence (P14416 whole entry): as above

Take `CN1CC2c3ccccc3Oc3ccc(Cl)cc3C2C1` (centres unmarked) [Asenapine, asenapine maleate]: the “t 1/2” value on human D2L receptors [1] came out at 0.75 min.

Usually Ki stands for a dissociation constant, usually derived from enzyme kinetics or from competition with a known ligand. A higher Ki goes with lower affinity. For orientation: Kd means the equilibrium constant for the complex coming apart. For the compound `O=C(CCCN1CC=C(n2c(=O)[nH]c3ccccc32)CC1)c1ccc(F)cc1` [Droperidol, droperidol], the Ki on human D2L receptors [2] is 0.102 nM. Also, the Kd at human D2L receptors [3] was 0.195 nM. In addition, on human D2L receptors [1] (setting [7]), the k off worked out at 0.00633 ± 0.00067 s⁻¹ and the k on is listed as 2.01 ± 0.38 × 10^9 M^−1 min^−1. At human D2L receptors [1], the “t 1/2” value stood at 1.82 min.

For `OCCN1CCN(CCC=C2c3ccccc3Sc3ccc(C(F)(F)F)cc32)CC1` [Flupenthixol, flupenthixol dihydrochloride], on human D2L receptors [4], the “t 1/2” value was found to be 9.63 min. Moreover, on human D2L receptors [2], the Ki was 0.209 nM. The compound also had a dissociation constant Kd at human D2L receptors [3] of 0.214 nM. Moreover, on human D2L receptors [1], the k off came out at 0.0012 ± 0.000167 s⁻¹ and the k on is 3.50 ± 0.72 × 10^8 M^−1 min^−1.

As for `OCCN1CCN(CCCN2c3ccccc3Sc3ccc(C(F)(F)F)cc32)CC1` [Fluphenazine, fluphenazine dihydrochloride], the “t 1/2” value on human D2L receptors [1] turned out to be 17.33 min.

In the case of `CN1CCN(C2=Nc3ccccc3Oc3ccc(Cl)cc32)CC1` [Loxapine, loxapine succinate], the “t 1/2” value at human D2L receptors [1] worked out at 0.32 min.

At human D2L receptors [2], `CCc1c(C)[nH]c2c1C(=O)C(CN1CCOCC1)CC2` (centres unmarked) [Molindone, molindone hydrochloride] showed an inhibition constant (Ki) of 26.9 nM. The Kd on human D2L receptors [3] was 20.4 nM. Also, the k off at D2R was 0.0282 s⁻¹; on human D2L receptors [1] (setting [7]) it was 0.0282 ± 0.0075 s⁻¹. Besides, the k on at human D2L receptors [1] (setting [7]) was 8.69 ± 2.6 × 10^7 M^−1 min^−1. Also, the “t 1/2” value at human D2L receptors [1] is 0.41 min.

Turning to `CNc1cc(OC)c(C(=O)NC2CCN(Cc3ccccc3)C2C)cc1Cl` (centres unmarked) [Nemonapride, nemonapride], the “t 1/2” value on human D2L receptors [1] is given as 38.50 min.

`Cc1nc2n(c(=O)c1CCN1CCC(c3noc4cc(F)ccc34)CC1)CCCC2O` (centres unmarked) [Paliperidone, paliperidone] showed an inhibition constant Ki at human D2L receptors [2] of 2.88 nM. Moreover, at human D2L receptors [3], binding was characterised by a dissociation constant (Kd) of 2.51 nM. Also, the k off at D2R was 0.0075 s⁻¹. Moreover, at human D2L receptors [1] (setting [7]), the k off is 0.00733 ± 0.00067 s⁻¹ and the k on is recorded as 1.80 ± 0.29 × 10^8 M^−1 min^−1. For the same compound, the “t 1/2” value at human D2L receptors [1] is given as 1.58 min.

On human D2L receptors [2], `OCCN1CCN(CCCN2c3ccccc3Sc3ccc(Cl)cc32)CC1` [Perphenazine, perphenazine] gave an inhibition constant (Ki) of 0.295 nM. The compound also gave an equilibrium dissociation constant (Kd) at human D2L receptors [3] of 0.186 nM. In addition, at human D2L receptors [1] (setting [7]), the k off is 0.00383 ± 0.00033 s⁻¹ and the k on is recorded as 1.29 ± 0.17 × 10^9 M^−1 min^−1. For the same compound, the “t 1/2” value at human D2L receptors [1] is listed as 3.01 min.

Turning to `OCCOCCN1CCN(C2=Nc3ccccc3Sc3ccccc32)CC1` [Quetiapine, quetiapine hemifumarate], in data set [5], the “plasma half-life, in words” value was “short”.

With `CCN1CCC[C@H]1CNC(=O)c1c(O)c(Cl)cc(Cl)c1OC` [Raclopride, raclopride], the “t 1/2” value on human D2L receptors [1] is given as 1.31 min.

Take `O=C1NCCN1CCN1CCC(c2cn(-c3ccc(F)cc3)c3ccc(Cl)cc23)CC1` [Sertindole, sertindole]: the “t 1/2” value at human D2L receptors [1] was 1.17 min.

As for `O=C(CCCN1CCC2(CC1)C(=O)NCN2c1ccccc1)c1ccc(F)cc1` [Spiperone, spiperone], on human D2L receptors [1], the “t 1/2” value was found to be 18.24 min.

Consider `CN1CCN(CCCN2c3ccccc3Sc3ccc(C(F)(F)F)cc32)CC1` [Trifluoperazine, trifluoperazine dihydrochloride], for which, on human D2L receptors [4], the k off is 0.00367 ± 0.00017 s⁻¹ and the k on is 1.10 ± 0.20 × 10^9 M^−1 min^−1. The compound further gave a Ki on human D2L receptors [2] of 0.331 nM. Moreover, on human D2L receptors [3], binding was put at a Kd of 0.204 nM. Moreover, at human D2L receptors [1], the “t 1/2” value came to 3.15 min.

For the compound `O=C1Cc2cc(CCN3CCN(c4nsc5ccccc45)CC3)c(Cl)cc2N1` [Ziprasidone, ziprasidone hydrochloride monohydrate], the “t 1/2” value on human D2L receptors [1] came out at 0.65 min.

With `CN(C)CCOC1=Cc2ccccc2Sc2ccc(Cl)cc21` [Zotepine, zotepine], the “t 1/2” value at human D2L receptors [1] was determined as 0.49 min.

Take `O=C1CCc2ccc(OCCCCN3CCN(c4cccc(Cl)c4Cl)CC3)cc2N1` [aripiprazole]: the “propensity to cause prolactin release, in words” value in data set [6] is “very little propensity to cause prolactin release”.

Consider (+)-butaclamol [(+)Butaclamol], for which the “t 1/2” value on human D2L receptors [4] worked out at 26.65 min.

Source of the values: paper PMC5624946, “Extrapyramidal side effects of antipsychotics are linked to their association kinetics at dopamine D2 receptors” (Nature Communications, 2017).
